{"source": "patent US20120288456A1", "about": "“NOVEL COMPOUND” (priority 2009, published 2012)", "key": {"[1]": {"assay": "Comparative solubility of BMDBM in 1:1 mixture of C12-15 alkyl benzoate and a polymeric or solid UV-filter", "description": "Where necessary the mixture was centrifuged in order to obtain a clear supernatant."}, "[2]": {"assay": "Solubility of BMDBM and BEMT in cosmetic solvent with and without PG-UVB (saturation, HPLC of supernatant; storage test)", "settings": "200 mg BEMT in 800 mg diethylhexyl adipate/PG-UVB1 1:1, 1 month at RT"}}}
{"compound": "CCCCC(CC)COc1ccc(-c2nc(-c3ccc(OC)cc3)nc(-c3ccc(OCC(CC)CCCC)cc3O)n2)c(O)c1", "note": "(stereo not shown) [BEMT, bis-ethylhexyloxyphenol methoxyphenyl triazine]", "values": [{"measurement": "Δ solubility of BMDBM related to cosmetic solvent", "setting": "[1]; C12-15 alkyl benzoate/UV-filter 1:1, label = UV-filter", "result": "−4", "unit": "wt.-%"}, {"measurement": "Δ solubility of BMDBM", "setting": "[1]; C12-15 alkyl benzoate/UV-filter 1:1 versus C12-15 alkyl benzoate, label = UV-filter", "result": "−11", "unit": "wt.-%"}, {"measurement": "Solubility of BMDBM in C12-15 alkyl benzoate/UV-filter 1:1", "setting": "[1]; label = UV-filter in 1:1 mixture, 200 mg BMDBM in 1000 mg mixture, 1 month at RT, HPLC of supernatant", "result": 3, "unit": "wt.-%"}, {"measurement": "re-crystallization on storage", "setting": "[2]", "result": "no re-crystallization occurred"}]}
